Measurements published in patent publication US7906522B2, “2-aminoquinazoline derivatives” (Kyowa Hakko Kirin Co., Ltd, priority 2005, dated 2011).

Molecular target: T1, Activated human p38α (Homo sapiens, UniProt Q16539)
T1 construct: purchased Upstate Biotechnology Inc. 14-251
Assay: p38MAP kinase inhibition test
Type: biochemical
Details: at a concentration of 1 μmol/L; substrate myelin basic protein, ATP 20 μmol/L, [γ-32P]ATP; read-out: enzyme inhibitory activity
Description: p38MAP Kinase Inhibition Test
Activated human p38α was purchased from Upstate Biotechnology Inc. (Catalog No. 14-251). P38MAP kinase inhibitory activity was measured by the procedure described below with reference to the method by Whitmarsh A. J. and Davis R. J. [Methods in Enzymology (Method. Enzymol.), vol. 332, p. 319-336 (2001)]. As the substrate to be phosphorylated, a myelin basic protein (Catalog No. 133-13493, Wako Pure Chemical Industries, Ltd.) (20 μg/assay) was used. The reaction was carried out in a solution containing 3-[N-Morpholino]propanesulfonic acid (MOPS) (20 mmol/L, pH 7.2), β-glycerophosphoric acid (Sigma Corp.) (25 mmol/L), ethylenebis(oxyethylenenitrilo)tetraacetic acid (EGTA) (1 mmol/L), […] (Sigma-Aldrich Corp.) (1 mmol/L), dithiothreitol (DTT, Wako Pure Chemical Industries, Ltd.) (1 mmol/L), adenosine 5′-triphosphate (ATP, Sigma Corp.) (20 μmol/L), and MgCl2 (18.75 mmol/L) (total 40 μL/assay). The reaction was started by adding human p38α and [γ-^32P]ATP (1 μCi/assay), and incubation was performed at 30° C. for 15 minutes. The reaction was terminated by adding 4.5% v/v phosphoric acid (10 μL/well). Then, 45 μL of the reaction mixture was adsorbed onto phosphocellulose paper (p81 paper, Code No. 3698023, Whatman International, Maidstone, UK). The phosphocellulose paper was washed with 0.75% v/v phosphoric acid. Then, the radioactivity of the phosphorylated myelin basic protein ([^32P]) remaining on the phosphocellulose paper was measured with a scintillation counter (TRI-CARB2700TR, PerkinElmer, Boston, Mass., USA) using program No. 27 (data mode: cpm, measurement time: 1 min, Background substract: none, energy range measured: LL 0.0-UL 2000) or a scintillation counter (LS6500, BeckmanCoulter, Fullerton, Calif., USA) using program No. 17 (data mode: cpm, measurement time: 1 min, Background substract: none, energy range measured: high). The test compound was dissolved in DMSO before addition.

T1 sequence (Q16539 whole entry): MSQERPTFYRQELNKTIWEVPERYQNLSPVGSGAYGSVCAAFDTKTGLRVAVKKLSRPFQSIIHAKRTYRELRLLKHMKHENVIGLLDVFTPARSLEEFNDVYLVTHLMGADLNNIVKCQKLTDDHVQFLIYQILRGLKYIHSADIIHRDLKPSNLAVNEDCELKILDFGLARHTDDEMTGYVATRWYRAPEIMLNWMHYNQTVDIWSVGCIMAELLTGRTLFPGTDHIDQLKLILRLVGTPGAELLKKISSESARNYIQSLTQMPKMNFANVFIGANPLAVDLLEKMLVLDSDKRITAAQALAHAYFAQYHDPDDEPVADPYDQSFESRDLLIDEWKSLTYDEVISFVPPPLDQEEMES

inhibition at 1 µM [%] | Compound
≥ 50 | CC(C)Nc1ncc2cc(-c3ccccc3Cl)c(-c3cccc(Cl)c3)cc2n1 [Compound 43, 6-(2-Chlorophenyl)-7-(3-chlorophenyl)-2-isopropylaminoquinazoline]
≥ 50 | COc1cc2nc(NC(C)C)ncc2cc1-c1ccccc1 [Compound 44, 2-Isopropylamino-7-methoxy-6-phenylquinazoline]
≥ 50 | COc1cc2nc(NC(C)C)ncc2cc1-c1ccc(O)cc1 [Compound 47, 6-(4-Hydroxyphenyl)-2-isopropylamino-7-methoxyquinazoline]
≥ 50 | COc1cc2nc(NC(C)C)ncc2cc1-c1cccc(N)c1 [Compound 50, 6-(3-Aminophenyl)-2-isopropylamino-7-methoxyquinazoline]
≥ 50 | COc1cc2nc(NC(C)C)ncc2cc1-c1cccc(NC(C)=O)c1 [Compound 52, 6-[(3-Acetylamino)phenyl]-2-isopropylamino-7-methoxyquinazoline]
≥ 50 | COc1cc2nc(NC(C)C)ncc2cc1-c1cccc(NC(=O)c2ccnc(N3CCOCC3)c2)c1 [Compound 53, 2-Isopropylamino-7-methoxy-6-{3-[(2-morpholinopyridin-4-yl)carbonylamino]phenyl}quinazoline]
≥ 50 | COc1cc2nc(NC(C)C)ncc2cc1-c1cccc(NC(=O)c2cccc(N(C)C)c2)c1 [Compound 54, 2-Isopropylamino-7-methoxy-6-{3-[(3-dimethylaminophenyl)carbonylamino]phenyl}quinazoline]
≥ 50 | COc1cc2nc(NC(C)C)ncc2cc1-c1ccccc1[N+](=O)[O-] [Compound 55, 2-Isopropylamino-7-methoxy-6-(2-nitrophenyl)quinazoline]
≥ 50 | COc1cc2nc(NC(C)C)ncc2cc1-c1ccccc1NC(C)=O [Compound 56, 6-[2-(Acetylamino)phenyl]-2-isopropylamino-7-methoxyquinazoline]
≥ 50 | COc1cc2nc(NC(C)C)ncc2cc1-c1ccccc1C=O [Compound 57, 6-(2-Formylphenyl)-2-isopropylamino-7-methoxyquinazoline]
≥ 50 | COc1cc2nc(NC(C)C)ncc2cc1-c1ccccc1C=NO [Compound 58]
≥ 50 | CON=Cc1ccccc1-c1cc2cnc(NC(C)C)nc2cc1OC [Compound 59, 2-Isopropylamino-7-methoxy-6-[2-(methoxyimino)phenyl]quinazoline]
≥ 50 | COc1c(-c2ccccc2Cl)cc2cnc(NC(C)C)nc2c1Br [Compound 60, 8-Bromo-6-(2-chlorophenyl)-2-isopropylamino-7-methoxyquinazoline]
≥ 50 | COC(=O)c1c(OC)c(-c2ccccc2Cl)cc2cnc(NC(C)C)nc12 [Compound 61, 6-(2-Chlorophenyl)-2-isopropylamino-7-methoxy-8-(methoxycarbonyl)quinazoline]
≥ 50 | CCCOC(=O)c1c(OC)c(-c2ccccc2Cl)cc2cnc(NC(C)C)nc12 [Compound 62, 6-(2-Chlorophenyl)-2-isopropylamino-7-methoxy-8-(propoxycarbonyl)quinazoline]
≥ 50 | CCCOC(=O)c1c(O)c(-c2ccccc2Cl)cc2cnc(NC(C)C)nc12 [Compound 63, 6-(2-Chlorophenyl)-7-hydroxy-2-isopropylamino-8-(propoxycarbonyl)quinazoline]
≥ 50 | COc1c(-c2ccccc2Cl)cc2cnc(NC(C)C)nc2c1C(=O)N1CCOCC1 [Compound 66, 6-(2-Chlorophenyl)-2-isopropylamino-8-(morpholinocarbonyl)-7-methoxyquinazoline]
≥ 50 | COc1c(-c2ccccc2Cl)cc2cnc(NC(C)C)nc2c1C(=O)N1CCCCC1 [Compound 67, 6-(2-Chlorophenyl)-2-isopropylamino-7-methoxy-8-(piperidinocarbonyl)quinazoline]
≥ 50 | CCN(CC)C(=O)c1c(OC)c(-c2ccccc2Cl)cc2cnc(NC(C)C)nc12 [Compound 68, 6-(2-Chlorophenyl)-8-(N,N-diethylaminocarbonyl)-2-isopropylamino-7-methoxyquinazoline]

inhibition at 1 µM [%] | Compound
≥ 50 | CCCNC(=O)c1c(OC)c(-c2ccccc2Cl)cc2cnc(NC(C)C)nc12 [Compound 69, 6-(2-Chlorophenyl)-2-isopropylamino-7-methoxy-8-(N-propylaminocarbonyl)quinazoline]
≥ 50 | COc1c(-c2ccccc2Cl)cc2cnc(NC(C)C)nc2c1C(=O)N(C)OC [Compound 71, 6-(2-Chlorophenyl)-2-isopropylamino-7-methoxy-8-(N-methoxy-N-methylaminocarbonyl)quinazoline]
≥ 50 | CON(C)C(=O)c1c(O)c(-c2ccccc2Cl)cc2cnc(NC(C)C)nc12 [Compound 72, 6-(2-Chlorophenyl)-7-hydroxy-2-isopropylamino-8-(N-methoxy-N-methylaminocarbonyl)quinazoline]
≥ 50 | CCOC(=O)/C=C/c1c(OC)c(-c2ccccc2Cl)cc2cnc(NC(C)C)nc12 [Compound 73, 6-(2-Chlorophenyl)-8-[(E)-2-(ethoxycarbonyl)ethenyl]-7-methoxy-2-(isopropylamino)quinazoline]
≥ 50 | COc1c(-c2ccccc2Cl)cc2cnc(NC(C)C)nc2c1/C=C/C(=O)O [Compound 74, 8-[(E)-2-carboxyethenyl]-6-(2-chlorophenyl)-7-methoxy-2-(isopropylamino)quinazoline]
≥ 50 | C=Cc1c(OC)c(-c2ccccc2Cl)cc2cnc(NC(C)C)nc12 [Compound 76, 6-(2-Chlorophenyl)-2-isopropylamino-7-methoxy-8-vinylquinazoline]
≥ 50 | COc1c(-c2ccccc2Cl)cc2cnc(NC(C)C)nc2c1C(C)=O [Compound 77, 8-Acetyl-6-(2-chlorophenyl)-2-isopropylamino-7-methoxyquinazoline]
≥ 50 | CC(=O)c1c(O)c(-c2ccccc2Cl)cc2cnc(NC(C)C)nc12 [Compound 78, 8-Acetyl-6-(2-chlorophenyl)-7-hydroxy-2-(isopropylamino)quinazoline]
≥ 50 | CCOC(=O)COc1c(-c2ccccc2Cl)cc2cnc(NC(C)C)nc2c1C(C)=O [Compound 79, 8-Acetyl-6-(2-chlorophenyl)-7-(ethoxycarbonylmethyloxy)-2-(isopropylamino)quinazoline]
≥ 50 | CC(=O)c1c(OCC(=O)O)c(-c2ccccc2Cl)cc2cnc(NC(C)C)nc12 [Compound 80, 8-Acetyl-7-(carboxymethyloxy)-6-(2-chlorophenyl)-2-(isopropylamino)quinazoline]
≥ 50 | CC(C)Nc1ncc2cc(-c3ccccc3Cl)c(OCC(C)(C)O)c(C(C)(C)O)c2n1 [Compound 81, 6-(2-Chlorophenyl)-8-(1-hydroxy-1-methylethyl)-7-(2-hydroxy-2-methylpropyloxy)-2-(isopropylamino)quinazoline]
≥ 50 | COc1c(-c2ccc(F)cc2F)cc2cnc(NC(C)C)nc2c1Br [Compound 82, 8-Bromo-6-(2,4-difluorophenyl)-2-isopropylamino-7-methoxyquinazoline]
≥ 50 | CC(C)Nc1ncc2cc(-c3ccc(F)cc3F)c(O)c(-c3ccc(F)cc3)c2n1 [Compound 84, 6-(2,4-Difluorophenyl)-8-(4-fluorophenyl)-2-isopropylamino-7-hydroxyquinazoline]
≥ 50 | COc1c(-c2ccccc2Cl)cc2cnc(NC(C)C)nc2c1-c1ccccn1 [Compound 86, 6-(2-Chlorophenyl)-2-isopropylamino-7-methoxy-8-(2-pyridyl)quinazoline]
≥ 50 | CC(C)Nc1ncc2cc(-c3ccccc3Cl)c(O)c(-c3ccccn3)c2n1 [Compound 87, 6-(2-Chlorophenyl)-2-isopropylamino-7-hydroxy-8-(2-pyridyl)quinazoline]
≥ 50 | CC(C)Nc1ncc2cc(-c3ccccc3Cl)c(O)c(I)c2n1 [Compound 88, 6-(2-Chlorophenyl)-7-hydroxy-8-iodo-2-(isopropylamino)quinazoline]
≥ 50 | COCOc1c(-c2ccccc2Cl)cc2cnc(NC(C)C)nc2c1-c1ccc(C(=O)O)cc1 [Compound 91, 8-(4-Carboxyphenyl)-6-(2-chlorophenyl)-2-isopropylamino-7-(methoxymethyloxy)quinazoline]
≥ 50 | CC(C)Nc1ncc2cc(-c3ccccc3Cl)c(O)c(-c3ccc(C(=O)O)cc3)c2n1 [Compound 92, 8-(4-Carboxyphenyl)-6-(2-chlorophenyl)-7-hydroxy-2-(isopropylamino)quinazoline]
